{"source": "patent US20120010179A1", "about": "“Methods of using a thiazole derivative” (priority 2006, published 2012)", "test_system": "patients with COPD", "experiment": "Pharmacodynamic and safety assessments (ECG, vital signs, serum potassium, adverse events, laboratory), Example 2", "type": "in vivo, human", "procedure": "Twelve-lead electrocardiograms (ECGs) were conducted after the subject had been resting and supine for ≧3 minutes. In addition to screening and pre-treatment baseline (Day 0) measurements, ECGs were also recorded at specific times during the treatment period. All 12-lead ECG monitors used for this study were calibrated and standardized. The ventricular rate, PR interval (the time elapsing between the beginning of the P wave and the beginning of the QRS interval in an electrocardiogram, corresponding to the electrical activity through the atria), QRS interval (the movement of electrical impulses through the ventricles), QT/QTc interval (the QT interval measures the time between the start of the Q wave and the end of the T wave in the heart's electrical cycle; QTc is a corrected QT interval, as determined by Fridericia's formula [QTcF] and Bazett's formula [QTcB]), and the overall ECG interpretation (normal or abnormal) were documented. Measurements were recorded prior to collection of any blood samples, where applicable. At least three original copies of each ECG (one each for the site, for the sponsor, and for the central ECG provider) were made. […]\nVital signs (heart rate and systolic blood pressure) were measured after the subject had been sitting for ≧3 minutes. […] Measurements were recorded prior to the collection of any blood samples, where applicable. […]", "data": [{"compound": "CCOc1ccc(-c2nc(-c3cccc(C(=O)O)n3)cs2)cc1OCC", "note": "[Tetomilast, 2-(3,4-diethoxyphenyl)-4-(2-carboxy-6-pyridyl)thiazole]", "values": [{"measurement": "changes in heart rate, systolic blood pressure, serum potassium, or QT interval versus placebo", "setting": "oral tetomilast in combination with Advair Diskus 250/50", "result": "No clinically meaningful changes"}, {"measurement": "differences in adverse events, serum chemistry, hematology, or urinalysis versus placebo", "setting": "oral tetomilast with inhaled Advair Diskus 250/50", "result": "no clinically meaningful differences"}]}]}
